From PubChem BioAssay AID1963846 (Molecular Pharmacology Branch, DTP, NCI, 2024)
“And” between values parts separate entries of the source, which are not always exact repeats. Equal entries are not always repeated.

Test system: 454973-116-R2-J3-PDC complex spheroid viability
Experiment: Anticancer human tumor 454973-116-R2-J3-PDC patient-derived pancreatic carcinoma cell line growth inhibition [POLQ]
Conditions: for viability, T/C: stronger effect = lower value
Method: Multicellular complex tumor spheroid response to Polymerase (POL) inhibitors (novobiocin, ART-558, RP6685) in combination with a variety of drugs and investigational agents in selected tumor cell lines
The POL inhibitors (novobiocin, ART-558, and RP6685) were evaluated both individually and in combination with standard of care and investigational anticancer small molecules within a complex spheroid model of solid tumors. . Complex spheroids include a stromal component modeled by human endothelial cells (HUVEC) and fibroblasts modeled by human mesenchymal stem cells (MSCs). The concentration ranges selected for each drug and investigational agent were based upon clinically achievable concentrations if the clinical Cmax of the agent was known.
Compounds. The drugs and investigational agents: novobiocin (NSC847541), ART-558 (NSC835418), RP-6685 (NSC848927), peposertib (NSC802822), ceralasertib (NSC780249), elimusertib (NSC800525), camonsertib (NSC841442), AZD-1390 (NSC803789), olaparib (NSC753686), talazoparib (NSC767125), rucaparib (NSC756644), sotorasib (NSC818433), MRTX-1133 (NSC836407), SN-38 (NSC673596), topotecan (NSC609699), epotoside (NSC141540), doxorubicin (NSC123127), gemcitabine (NSC613327), 5-fluorouracil (NSC19893), paclitaxel (NSC125973), vemurafenib (NSC761431), MSA-2 (NSC828583), SN-011 (NSC837082), adavosertib (NSC754352), prexasertib (NSC758257), carboplatin (NSC241240) and oxaliplatin (NSC266046), were obtained from the National Cancer Institute (NCI) Developmental Therapeutics Program Chemical Repository (21). The FDA-approved anticancer drug set is available from the Developmental Therapeutics Program at https://dtp.cancer.gov/organization/dscb/obtaining/. […] The stock solutions were prepared in dimethyl sulfoxide (DMSO, Sigma-Aldrich, St. Louis, MO, cat. D2650), except for the platinum compounds which were prepared in saline (Quality Biological, Gaithersburg, MD, cat. 114-055-101), at 800-fold the tested concentration and stored at -70 degrees C prior to their use. All drugs and investigational agents were tested over a range starting from a high concentration at or near the clinical Cmax and decreasing in half-log increments. If the clinical Cmax for an agent had not been determined, the highest concentration tested was 10 microM, except for SN-38, which was tested at a high concentration of 1 microM.
Cell Culture. All cells were maintained in an incubator at 37 degrees C and 5% CO2 with 95% humidity. The PDC lines were cultured according to standard operating procedures established by the NCI PDMR (https://pdmr.cancer.gov). Table 3 of the manuscript, lists the cell lines along with the number of the three cell types plated to form the mct-spheroids and media for tumor cell growth. After thawing, all PDC lines, except 997537-175-T-J1-PDC and 415267-285-R-J2-PDC, were cultured in Matrigel-coated flasks prepared with a working solution of 1X Ham's F-12 nutrient mix, without supplementation (Thermo Fisher Scientific, cat. 11765054), 100 U/mL penicillin-streptomycin (Thermo Fisher Scientific, cat. 15140122), and 2.5% Matrigel (Corning Inc., Corning, NY, cat. 354248) for the first three passages. The two PDC lines 997537-175-T-J1-PDC and 415267-285-R-J2-PDC were cultured on uncoated flasks. The 857933-349-R-J2-PDC line was cultured in 6C/Colon 1B media containing advanced DMEM/F-12 (Thermo Fisher Scientific, cat. 12634028), 10 mM HEPES (Thermo Fisher Scientific, cat. 15630080), 1X GlutaMAX supplement (Thermo Fisher Scientific, cat. 35050061), 0.1 mg/mL primocin (InvivoGen, San Diego, CA, cat. ant-pm-2), 10% defined fetal bovine serum, heat inactivated (HyClone Laboratories Inc., Logan, UT, cat. SH30070.03HI), 50% L-WRN conditioned media (ATCC, cat. CRL-3276), 1.25 mM N-Acetyl-L-cysteine (Sigma-Aldrich, cat. A9165), 10 mM nicotinamide (Sigma-Aldrich, cat. N0636), 1X B-27 supplement (Thermo Fisher Scientific, cat. 17504044), 1X N-2 supplement (Thermo Fisher Scientific, cat. […]

[1] = curve of first compound, second compound 0.0316 µM
[2] = curve of first compound, second compound 0.1 µM
[3] = curve of first compound, second compound 0.316 µM
[4] = curve of first compound, second compound 1 µM
[5] = curve of first compound, second compound 3.16 µM
[6] = curve of first compound, second compound 10 µM
[7] = second compound 0.0316 µM, first compound 0.0316 µM
[8] = second compound 0.0316 µM, first compound 0.1 µM
[9] = second compound 0.0316 µM, first compound 0.316 µM
[10] = second compound 0.0316 µM, first compound 1 µM
[11] = second compound 0.0316 µM, first compound 3.16 µM
[12] = second compound 0.0316 µM, first compound 10 µM
[13] = second compound 0.1 µM, first compound 0.0316 µM
[14] = second compound 0.1 µM, first compound 0.1 µM
[15] = second compound 0.1 µM, first compound 0.316 µM
[16] = second compound 0.1 µM, first compound 1 µM
[17] = second compound 0.1 µM, first compound 3.16 µM
[18] = second compound 0.1 µM, first compound 10 µM
[19] = second compound 0.316 µM, first compound 0.0316 µM
[20] = second compound 0.316 µM, first compound 0.1 µM
[21] = second compound 0.316 µM, first compound 0.316 µM
[22] = second compound 0.316 µM, first compound 1 µM
[23] = second compound 0.316 µM, first compound 3.16 µM
[24] = second compound 0.316 µM, first compound 10 µM
[25] = second compound 1 µM, first compound 0.0316 µM
[26] = second compound 1 µM, first compound 0.1 µM
[27] = second compound 1 µM, first compound 0.316 µM
[28] = second compound 1 µM, first compound 1 µM
[29] = second compound 1 µM, first compound 3.16 µM
[30] = second compound 1 µM, first compound 10 µM
[31] = second compound 3.16 µM, first compound 0.0316 µM
[32] = second compound 3.16 µM, first compound 0.1 µM
[33] = second compound 3.16 µM, first compound 0.316 µM
[34] = second compound 3.16 µM, first compound 1 µM
[35] = second compound 3.16 µM, first compound 3.16 µM
[36] = second compound 3.16 µM, first compound 10 µM
[37] = second compound 10 µM, first compound 0.0316 µM
[38] = second compound 10 µM, first compound 0.1 µM
[39] = second compound 10 µM, first compound 0.316 µM
[40] = second compound 10 µM, first compound 1 µM
[41] = second compound 10 µM, first compound 3.16 µM
[42] = second compound 10 µM, first compound 10 µM
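Note: spheroids exposed to drugs for seven days before measurement.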
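Throughout, for viability, T/C: percent viability relative to DMSO vehicle control wells taken as 100%.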

With `CCc1cc2c(N3CCc4c(cc(Cn5ccnc5)cc4-c4cn(C)nc4C(F)(F)F)C3=O)ccnc2c(OC)n1` + Nc1ccc(C#CCN(C(=O)Cc2ncc(C(F)(F)F)cc2C(F)(F)F)c2ccc(F)cc2)nn1 the IC50 [1] was greater than 10 µM, the IC50 [2] was greater than 10 µM and the IC50 [3] was greater than 10 µM. For the same compound, the IC50 [4] was greater than 10 µM, the IC50 [5] was greater than 10 µM and the IC50 [6] was greater than 10 µM. The viability, T/C [7] was 119%, the viability, T/C [8] was 91.5% and the viability, T/C [9] was 84.1%. For the same compound, the viability, T/C [10] was 78.7%, the viability, T/C [11] was 72.4% and the viability, T/C [12] was 63.3%. The viability, T/C [13] was 99%, the viability, T/C [14] was 88.2% and the viability, T/C [15] was 80.8%. It also gave a viability, T/C [16] of 84.6%, a viability, T/C [17] of 72.3% and a viability, T/C [18] of 62.6%. For the same compound, the viability, T/C [19] was 93%, the viability, T/C [20] was 95.1% and the viability, T/C [21] was 90.3%. It also gave a viability, T/C [22] of 72.6%, a viability, T/C [23] of 78% and a viability, T/C [24] of 55.8%. For the same compound, the viability, T/C [25] was 112%, the viability, T/C [26] was 92.3% and the viability, T/C [27] was 93.3%. The viability, T/C [28] was 76.5%, the viability, T/C [29] was 76.6% and the viability, T/C [30] was 58.1%. It also gave a viability, T/C [31] of 101%, a viability, T/C [32] of 99.2% and a viability, T/C [33] of 93.6%. The viability, T/C [34] was 82.4%, the viability, T/C [35] was 68.3% and the viability, T/C [36] was 60.7%. For the same compound, the viability, T/C [37] was 111%, the viability, T/C [38] was 114% and the viability, T/C [39] was 89.1%. It also gave a viability, T/C [40] of 84.7%, a viability, T/C [41] of 81.8% and a viability, T/C [42] of 58.5%.
In the case of `COc1cc2cc(C(=O)CCC(=O)O)sc2cc1OC`, the viability, T/C (compound 0.0316 µM) is reported as 101% and 105% (2×), the viability, T/C (compound 0.1 µM) is reported as 101% (2×) and 99.3% and the viability, T/C (compound 0.316 µM) is reported as 100% and 105% and 108%. The viability, T/C (compound 1 µM) was 96.9% and 103% and 106%, the viability, T/C (compound 3.16 µM) was 94.2% and 105% and 114% and the viability, T/C (compound 10 µM) was 96.2% and 95.3% and 93.4%. The IC50 (curve of compound) was greater than 10 µM.
For `CC1COCCN1c1cc(-c2ccnn2C)c2ccnc(-c3ccn[nH]3)c2n1` (stereo not given), the viability, T/C (compound 0.0316 µM) was 91.5% and 96.9% and 97.4%, the viability, T/C (compound 0.1 µM) was 75.7% and 73.8% and 55.7% and the viability, T/C (compound 0.316 µM) was 42.8% and 37.2% and 20.8%. The viability, T/C (compound 1 µM) was 20.7% and 22.5% and 12.6%, the viability, T/C (compound 3.16 µM) was 21.3% and 24.4% and 12.3% and the viability, T/C (compound 10 µM) was 25% and 30% and 17.2%. For the same compound, the IC50 (curve of compound) was 0.238 µM and 0.208 µM and 0.121 µM.
For `COc1ccc([C@@H](O)c2cc(-c3ncnc4cc(N5CCOCC5)ccc34)c(F)cc2Cl)nn1`, the viability, T/C (compound 0.0316 µM) was 110% and 102% and 101%, the viability, T/C (compound 0.1 µM) was 102% and 96.8% and 98.7% and the viability, T/C (compound 0.316 µM) was 104% and 102% and 94.2%. The viability, T/C (compound 1 µM) was 92.9% and 83.8% and 93%, the viability, T/C (compound 3.16 µM) was 76% and 75.2% and 80.2% and the viability, T/C (compound 10 µM) was 52.7% and 56.2% and 53.7%. The IC50 (curve of compound) was greater than 10 µM.
`CC1COCCN1c1cc(C2(S(C)(=N)=O)CC2)nc(-c2ccnc3[nH]ccc23)n1` (stereo not given) + Nc1ccc(C#CCN(C(=O)Cc2ncc(C(F)(F)F)cc2C(F)(F)F)c2ccc(F)cc2)nn1 gave an IC50 [1] of 4.99 µM, an IC50 [2] of 5.25 µM and an IC50 [3] of 4.65 µM. It also gave an IC50 [4] of 4.27 µM, an IC50 [5] of 4.31 µM and an IC50 [6] of 3.67 µM. The viability, T/C [7] was 115%, the viability, T/C [8] was 104% and the viability, T/C [9] was 112%. The viability, T/C [10] was 100%, the viability, T/C [11] was 68% and the viability, T/C [12] was 22.5%. The viability, T/C [13] was 99.5%, the viability, T/C [14] was 109% and the viability, T/C [15] was 104%. The viability, T/C [16] was 97.5%, the viability, T/C [17] was 70.3% and the viability, T/C [18] was 24.3%. It also gave a viability, T/C [19] of 109%, a viability, T/C [20] of 122% and a viability, T/C [21] of 104%. The viability, T/C [22] was 95.2%, the viability, T/C [23] was 64.8% and the viability, T/C [24] was 20.9%. The viability, T/C [25] was 110%, the viability, T/C [26] was 111% and the viability, T/C [27] was 109%. For the same compound, the viability, T/C [28] was 109%, the viability, T/C [29] was 61.6% and the viability, T/C [30] was 17.3%. The viability, T/C [31] was 116%, the viability, T/C [32] was 106% and the viability, T/C [33] was 108%. For the same compound, the viability, T/C [34] was 105%, the viability, T/C [35] was 59.9% and the viability, T/C [36] was 23.1%. It also gave a viability, T/C [37] of 122%, a viability, T/C [38] of 114% and a viability, T/C [39] of 113%. The viability, T/C [40] was 111%, the viability, T/C [41] was 55% and the viability, T/C [42] was 15.5%.
